Data taken from patent publication US20250275535A1, “OLIVE TREE BIOMASS EXTRACT” (Veos Pharmaceuticals, S.L., priority 2024, published 2025).
Several values for one entry are separate records, joined by “and”; a condition that tells them apart may be missing. Equal entries are not always repeated.

Legend:
Type in all cases: in vivo
[1] = tested on: Corn seeds (field hybrid 7571); experiment: Corn seed germination; conditions: 12 wt. % hydroxytyrosol solution, room temperature, 14 days; water control 27% (FIG. 1C), 33% (repeat, FIG. 1D)
Protocol: Corn seeds (field hybrid 7571) were incubated at room temperature in a solution including 12 wt. % hydroxytyrosol for 14 days. As a control, corn seeds (field hybrid 7571) were incubated at room temperature in water for 14 days.

[2] = tested on: Sorghum seeds (RT X 437); experiment: Sorghum seed germination; conditions: 12 wt. % hydroxytyrosol solution, room temperature, 14 days; water control 36% (FIG. 2C), 29% (repeat, FIG. 2D)
Protocol: Sorghum seeds (RT X 437) were incubated at room temperature in a solution including 12 wt. % hydroxytyrosol for 14 days. As a control, sorghum seeds (RT X 437) were incubated at room temperature in water for 14 days.

[3] = tested on: Rice seeds (Japanese cultivar, Taipei 309); experiment: Rice seed germination; conditions: 12 wt. % hydroxytyrosol solution, 37° C., 14 days; water control 56%
Protocol: Rice seeds (Japanese cultivar, Taipei 309) were incubated at 37° C. in a solution including 12 wt. % hydroxytyrosol for 14 days. As a control, rice seeds (Japanese cultivar, Taipei 309) were incubated at 37° C. in water for 14 days.

[4] = tested on: Rice plants; experiment: Rice growth rate (column length); conditions: 12 wt. % hydroxytyrosol
Protocol: Rice plants were treated with 12 wt. % hydroxytyrosol over 28 days. As a control, rice plants were treated with water over 28 days. FIG. 4 depicts a line chart showing the column length of rice plants over 28 days. Table 1 provides the column length of rice plants treated with 12 wt. % hydroxytyrosol and water after 1, 14, and 28 days.

[5] = tested on: HSP70; experiment: Fold change in protein expression (SDS-PAGE, Western blotting, densitometry); conditions: 12% hydroxytyrosol, vs water control, FIG. 6
Protocol: (§1) The effect of different hydroxytyrosol concentrations on crop stress resistance and protein production was examined. […] Protein quantification was conducted using SDS-PAGE and Western blotting for visualization, followed by densitometry analysis to measure fold increases in protein expression. Additionally, HPLC-DAD and mass spectrometry were utilized to confirm hydroxytyrosol stability and retention in plant tissue.

[6] = tested on: Rubisco; experiment: as above; conditions: 12% hydroxytyrosol, vs water control, FIG. 6
Protocol: as §1

[7] = tested on: low molecular weight proteins (sHSPs, LTPs, pathogenesis-related proteins, and LEA proteins); experiment: as above; conditions: 12% hydroxytyrosol, vs water control, FIG. 6
Protocol: as §1

[8] = tested on: other HSPs; experiment: as above; conditions: 12% hydroxytyrosol, vs water control, FIG. 6
Protocol: as §1

OCCc1ccc(O)c(O)c1 [hydroxytyrosol]
corn seeds germinated [1]: 75% and 69% | sorghum seeds germinated [2]: 78% and 77% | rice seeds germinated [3]: 74% | column length of rice plants ([4]; 1 day of treatment, water control 22 cm): 35 cm | column length of rice plants ([4]; 14 days of treatment, water control 39 cm): 82 cm | column length of rice plants ([4]; 28 days of treatment, water control 60 cm): 112 cm | increase in HSP70 (fold change in protein expression) [5]: 2.99 × | increase in Rubisco (fold change in protein expression) [6]: 1.72 × | increase in low molecular weight proteins (fold change in protein expression) [7]: 4.09 × | increase in other HSPs (fold change in protein expression) [8]: 3.10 ×
